Results published in patent US9468604B2, “Pharmaceutical compositions of dispersions of drug and neutral polymers” (Bend Research, Inc., priority 2001, dated 2016).
Each block holds one molecule with its values, some of them ahead of it.

Key:
Assay type in all cases: physicochemical
[1] = In vitro dissolution test of Drug 5 compositions in MFD solution; set-up: AUC90: concentration or dose not given beside the values; details: for AUC / Drug 5 Concentration: Table 27; for AUC / AUC90 / Cmax90: Drug 5, MFD solution; for Drug 5 Concentration: MFD solution; for AUC90 / Cmax90: 0 to 90 min
Experimental: (§1) For Control C2, the crystalline form of the drug alone was used without further processing. […] The tubes were placed in a 37° C. temperature-controlled bath, and 1.8 mL phosphate buffered saline (PBS) at pH 6.5 and 290 mOsm/kg was added to each. The samples were quickly mixed using a vortex mixer for about 60 seconds. The samples were centrifuged at 13,000 G at 37° C. for 1 minute. The resulting supernatant solutions were then sampled and diluted 1:6 (by volume) with methanol and then analyzed by high-performance liquid chromatography (HPLC). The contents of the tubes were mixed on the vortex mixer and allowed to stand undisturbed at 37° C. until the next sample was taken. Samples were collected at 4, 10, 20, 40, 90, and 1200 minutes.
In vitro dissolution tests were performed for Examples 28-29, using the procedure described in Example 4, with the following exceptions: 9 mg each of the dispersions of Examples 28-29 were added to separate respective centrifuge tubes. 1.8 mL of MFD solution was then added to each tube. For comparison, Control C12 was prepared consisting of 0.36 mg of crystalline Drug 5 added to 1.8 mL of MFD solution for a total theoretical concentration of 200 μg/mL if all of the drug dissolved. Drug 5 concentration in the samples was determined using HPLC. A Waters Symmetry C18 HPLC column was used with a mobile phase of 50 vol. % (0.3 vol. % glacial acetic acid, 0.2 vol. % TEA in water) and 50 vol. % acetonitrile. UV detection was measured at 260 nm.
(§2) In vitro dissolution tests were performed for Examples 35-38, using the procedures described in Example 4, with the following exceptions: 14.4 mg each of Example 35 and 36 were added to separate respective test tubes to which 1.8 mL of PBS solution was added, so that the total theoretical Drug 4 concentration was approximately 200 μg/mL if all of Drug 4 were to dissolve completely; 3.6 mg each of Examples 37 and 38 were added in separate respective test tubes to 1.8 mL of MFD solution, to provide a total theoretical Drug 5 concentration of approximately 20 μg/mL if all of Drug 5 were to dissolve completely. Drug 4 concentration in the samples was determined as in Example 33. Drug 5 concentration in the samples was determined as in Example 34.

[2] = In vitro dissolution test of Drug 2 compositions in MFD solution; set-up: AUC / AUC90: concentration or dose not given beside the values; details: for Drug 2: MFD solution, 37° C.
Experimental: as §1
This example measures' the concentration-enhancing properties of the PVP dispersion of Example 14. Dissolution tests were performed, as described in Example 4 with the following exceptions: the PBS solution contained 7.3 mM sodium taurocholic acid and 1.4 mM 1-palmitoyl-2-oleyl-sn-glycero-3-phosphocholine (model fasted duodenal (MFD) solution). 1.8 mg of dispersion was added to 1.8 mL of test media. For Control C6, 0.18 mg of the crystalline form of the Drug 2 alone was used without further processing and added to 1.8 mL of MFD solution.

[3] = In vitro dissolution test of Drug 3 compositions in MFD solution; set-up: AUC / AUC90: concentration or dose not given beside the values; details: for Drug 3: MFD solution, 37° C.
Experimental: as §1
Dissolution tests were performed, as described in Example 4 with the following exceptions: samples were tested in MFD Solution, and 1.8 mg of dispersion was added to 1.8 mLs of MFD Solution. Control C9 was simply 0.18 mg of the crystalline Drug 3 alone add to 1.8 mL of MFD solution.

[4] = In vitro dissolution test of Drug 4 compositions in PBS; details: for AUC / [Drug 4]: Table 25; for AUC / AUC90 / Cmax90: Drug 4, PBS; for [Drug 4]: PBS; for AUC90 / Cmax90: 0 to 90 min
Experimental: as §1
In vitro dissolution tests were performed for Examples 25-27 using the procedure described in Example 4, with the following exceptions: 14.4 mg each of the dispersions of Examples 25-27 were added to separate, respective centrifuge tubes. 1.8 mL PBS was added to each tube. For comparison, Control C11 was prepared consisting of 3.6 mg of crystalline Drug 4 added to 1.8 mL PBS. Drug 4 concentration in the samples was determined using HPLC. A Zorbax SB C18 HPLC column was used with a mobile phase of 35 vol. % water and 65 vol. % methanol. UV detection was measured at 297 nm.
as §2

[5] = Drug 2, MFD solution, 0 to 90 min
[6] = Drug 3, MFD solution, 0 to 90 min

AUC ([1]; time 0 min): 0 µg·min/mL
AUC ([1]; time 4 min): 0 µg·min/mL
AUC ([1]; time 10 min): 100 µg·min/mL
AUC ([1]; time 20 min): 300 µg·min/mL
AUC ([1]; time 40 min): 800 µg·min/mL
AUC ([1]; time 90 min): 2,200 min*μg/mL
AUC ([1]; time 1200 min): 43,300 min*μg/mL
Drug 5 Concentration ([1]; time 0 min): 0 µg/mL
Drug 5 Concentration ([1]; time 4 min): 9 µg/mL
Drug 5 Concentration ([1]; time 10 min): 15 µg/mL
Drug 5 Concentration ([1]; time 20 min): 21 µg/mL
Drug 5 Concentration ([1]; time 40 min): 27 µg/mL
Drug 5 Concentration ([1]; time 90 min): 32 µg/mL
Drug 5 Concentration ([1]; time 1200 min): 42 µg/mL
AUC90 ([1]; Table 28): 2,200 min*μg/mL
Cmax90 ([1]; Table 28): 32000 ng/mL
Cmax90 ([1]; Table 32): 32000 ng/mL
AUC90 ([1]; Table 32, in min·µg/mL): 2,200
Structure (SMILES): NC(=O)N(O)C1C=C(c2cccc(Oc3ccc(F)cc3)c2)CC1 (single isomer, unassigned; (+)) [Example C12, (+)-N-{3-[3-(4-fluorophenoxy)phenyl]-2-cyclopenten-1-yl}-N-hydroxyurea]

AUC90 [2, 5]: 400 µg·min/mL
Cmax90 [2, 5]: 7000 ng/mL
AUC ([2]; Drug 2, MFD solution, time 0 min): 0 min*µg/mL
AUC ([2]; Drug 2, MFD solution, time 4 min): 0 min*µg/mL
AUC ([2]; Drug 2, MFD solution, time 10 min): 0 min*µg/mL
AUC ([2]; Drug 2, MFD solution, time 20 min): 100 min*µg/mL
AUC ([2]; Drug 2, MFD solution, time 40 min): 100 min*µg/mL
AUC ([2]; Drug 2, MFD solution, time 90 min): 400 min*µg/mL
Drug 2 ([2]; time 0 min): 0 µg/mL
Drug 2 ([2]; time 4 min): 2 µg/mL
Drug 2 ([2]; time 10 min): 4 µg/mL
Drug 2 ([2]; time 20 min): 4 µg/mL
Drug 2 ([2]; time 40 min): 4 µg/mL
Drug 2 ([2]; time 90 min): 7 µg/mL
Structure (SMILES): O=C(NC(Cc1ccccc1)C(O)CC(C(=O)NO)C1CCC(F)(F)CC1)c1cnc2ccccc2n1 (stereo not shown) [Example C6, quinoxaline-2-carboxylic acid [1-benzyl-4-(4,4-difluoro-cyclohexyl)-2-hydroxy-4-hydroxycarbamoyl-butyl]-amide]

AUC90 [3, 6]: 900 µg·min/mL
Cmax90 [3, 6]: 13000 ng/mL
AUC ([3]; Drug 3, MFD solution, time 0 min): 0 min*µg/mL
AUC ([3]; Drug 3, MFD solution, time 4 min): 0 min*µg/mL
AUC ([3]; Drug 3, MFD solution, time 10 min): 0 min*µg/mL
AUC ([3]; Drug 3, MFD solution, time 20 min): 100 min*µg/mL
AUC ([3]; Drug 3, MFD solution, time 40 min): 300 min*µg/mL
AUC ([3]; Drug 3, MFD solution, time 90 min): 900 min*µg/mL
Drug 3 ([3]; time 0 min): 0 µg/mL
Drug 3 ([3]; time 4 min): 4 µg/mL
Drug 3 ([3]; time 10 min): 6 µg/mL
Drug 3 ([3]; time 20 min): 8 µg/mL
Drug 3 ([3]; time 40 min): 11 µg/mL
Drug 3 ([3]; time 90 min): 13 µg/mL
Structure (SMILES): O=C(NC(Cc1ccccc1)C(O)CC(C(=O)NO)C1(O)CCC(F)(F)CC1)c1cnc2ccccc2n1 (stereo not shown) [Example C9, quinoxaline-2-carboxylic acid [1-benzyl-4-(4,4-difluoro-1-hydroxy-cyclohexyl)-2-hydroxy-4-hydroxycarbamoyl-butyl]-amide]

AUC ([4]; time 0 min): 0 µg·min/mL
AUC ([4]; time 4 min): 300 µg·min/mL
AUC ([4]; time 10 min): 1,000 min*μg/mL
AUC ([4]; time 20 min): 2,200 min*μg/mL
AUC ([4]; time 40 min): 4,500 min*μg/mL
AUC ([4]; time 90 min): 10,300 min*μg/mL
AUC ([4]; time 1200 min): 120,200 min*μg/mL
[Drug 4] ([4]; time 0 min): 0 µg/mL
[Drug 4] ([4]; time 4 min): 131 µg/mL
[Drug 4] ([4]; time 10 min): 114 µg/mL
[Drug 4] ([4]; time 20 min): 124 µg/mL
[Drug 4] ([4]; time 40 min): 107 µg/mL
[Drug 4] ([4]; time 90 min): 126 µg/mL
[Drug 4] ([4]; time 1200 min): 72 µg/mL
AUC90 ([4]; Table 26): 10,300 min*μg/mL
Cmax90 ([4]; Table 26): 131000 ng/mL
Cmax90 ([4]; Table 31): 131000 ng/mL
AUC90 ([4]; Table 31, in min·µg/mL): 10,300
Structure (SMILES): O=C(N[C@@H](Cc1ccccc1)[C@@H](O)C(=O)N1C[C@@H](O)[C@@H](O)C1)c1cc2cc(Cl)ccc2[nH]1 [Example C11, 5-chloro-1H-indole-2-carboxylic acid [(1S)-benzyl-3-((3R,4S)-dihydroxypyrrolidin-1-yl)-(2R)-hydroxy-3-oxypropyl]amide]
